Key:
[1] = test system: human acute monocytic leukemia cell line THP-1; test: IL-1β production in LPS/PMA-activated THP-1 cells (ELISA); type: cell-based; details: THP-1, 24 h pre-incubation with 0.1 to 25 μM PTSO, then 1 μg/ml LPS and 1 μM PMA, FIG. 3
Experimental: (§1) The effects of different concentrations of PTSO on cytokine production (IL-1β and IL-6) in the human acute monocytic leukemia cell line THP-1 activated by lipopolysaccharide (LPS) and phorbol 12-myristate 13-acetate (PMA) were evaluated. Of note, IL-1β and IL-6 cytokines have been reported to play a key role in the activated immune response that takes place in different inflammatory and/or immune conditions.
The human acute monocytic leukemia cell line THP-1 was obtained from the Cell Culture Unit of the University of Granada (Granada, Spain) (ECACC reference number: 88081201). These cells were cultured in Roswell Park Memorial Institute (RPMI) 1640 medium (Sigma, St Louis, Mo., USA) supplemented with 10% fetal bovine serum (Sigma), 2 mM glutamine and 0.05 mM mercaptoethanol in a humidified 5% carbon dioxide (CO2) atmosphere at 37° C. The cultured cells were seeded onto 24-well plates at a density of 5×10^5 cells/ml and pre-incubated for twenty four (24) hours with the different concentrations of the test compound (ranging from 0.1 to 25 μM of PTSO), and then stimulated with 1 μg/ml LPS and 1 μM phorbol 12-myristate 13-acetate (PMA). […]

[2] = test system: human acute monocytic leukemia cell line THP-1; test: IL-6 production in LPS/PMA-activated THP-1 cells (ELISA); type: cell-based
Experimental: as §1
The human acute monocytic leukemia cell line THP-1 was obtained from the Cell Culture Unit of the University of Granada (Granada, Spain) (ECACC reference number: 88081201). These cells were cultured in Roswell Park Memorial Institute (RPMI) 1640 medium (Sigma, St Louis, Mo., USA) supplemented with 10% fetal bovine serum (Sigma), 2 mM glutamine and 0.05 mM mercaptoethanol in a humidified 5% carbon dioxide (CO2) atmosphere at 37° C. The cultured cells were seeded onto 24-well plates at a density of 5×10^5 cells/ml and pre-incubated for twenty four (24) hours with the different concentrations of the test compound (ranging from 0.1 to 25 μM of PTSO), and then stimulated with 1 μg/ml LPS and 1 μM phorbol 12-myristate 13-acetate (PMA). After twenty-four hours, the supernatants were collected and centrifuged at 1,000 g for 10 min, and then stored at −80° C. for the determination of IL-1β and IL-6 levels by an enzyme-linked immunosorbent assay (ELISA) (GE Healthcare, Little Chalfont, UK).

[3] = test system: human epithelial colorectal adenocarcinoma cells (CACO-2); test: IL-8 production in IL-1β-activated CACO-2 cells (ELISA); type: cell-based; details: Caco-2, 24 h pre-incubation with 0.1 to 25 μM PTSO, then 1 ng/ml IL-1β, FIG. 5
Experimental: The effects of different concentrations of PTSO on cytokine production (IL-8) in the epithelial cell line human epithelial colorectal adenocarcinoma cells (CACO-2) activated by IL-1β were evaluated. IL-8 acts as a neutrophil attractant, which participates in the neutrophil infiltration that occurs in mucosal sites affected by an inflammatory process.
The human colonic adenocarcinoma cell line CACO-2 was obtained from the Cell Culture Unit of the University of Granada (Granada, Spain) (ECACC reference number: 86010202). Cells from the human colonic adenocarcinoma cell line CACO-2 were cultured in RPMI 1640 (Sigma) supplemented with 10% fetal bovine serum (Sigma), 2 mM glutamine and 0.05 mM mercaptoethanol in a humidified 5% CO2 atmosphere at 37° C. The cultured cells were seeded onto 24-well plates until confluence and pre-incubated for twenty-four hours (24 hr) with the different concentrations of the test compound (ranging from 0.1 to 25 μM of PTSO), and then stimulated with 1 ng/ml IL-1β. […] The effects of the different concentrations of PTSO on cell viability were assessed by using the methylthiazol terazolium (MTT) assay (Promega), following the same protocol of incubation of the test compound similar to that described above.

[4] = test system: human T cell line JURKAT E6.1; test: IFN-γ production in ionomycin/PMA-stimulated JURKAT E6.1 cells (ELISA); type: cell-based; details: JURKAT E6.1, 2 and 24 h pre-incubation with 0.1 to 25 μM PTSO, then 40 nM ionomycin and 0.5 μM PMA, FIG. 6
Experimental: The human T cell line JURKAT E6.1 was obtained from the Cell Culture Unit of the University of Granada (Granada, Spain) (ECACC reference number: 88042803). Cells from the human T cell line JURKAT E6.1 were cultured in RPMI 1640 (Sigma) supplemented with 10% fetal bovine serum (Sigma), 2 mM glutamine and 0.05 mM mercaptoethanol in a humidified 5% CO2 atmosphere at 37° C. The cultured cells from the human T cell line JURKAT E6.1 were seeded onto 24-well plates at the concentration of 500,000 cells/ml and pre-incubated for 2 and 24 hours with the different concentrations of the test compound (ranging from 0.1 to 25 μM of PTSO), and then stimulated with 40 nM ionomycin and 0.5 μM of PMA. After twenty four hours (24 hours), the supernatants were collected and centrifuged at 1,000 g for 10 min, and stored at −80° C. for the determination of IFN-γ levels by ELISA (GE Healthcare).

THP-1 cells = test: Cell viability (MTT assay), THP-1; type: cell-based, human; details: THP-1, concentrations up to 25 μM
CACO-2 cells = test: Cell viability (MTT assay), CACO-2; type: cell-based, human; details: CACO-2, concentrations up to 25 μM
Experimental: The human colonic adenocarcinoma cell line CACO-2 was obtained from the Cell Culture Unit of the University of Granada (Granada, Spain) (ECACC reference number: 86010202). Cells from the human colonic adenocarcinoma cell line CACO-2 were cultured in RPMI 1640 (Sigma) supplemented with 10% fetal bovine serum (Sigma), 2 mM glutamine and 0.05 mM mercaptoethanol in a humidified 5% CO2 atmosphere at 37° C. The cultured cells were seeded onto 24-well plates until confluence and pre-incubated for twenty-four hours (24 hr) with the different concentrations of the test compound (ranging from 0.1 to 25 μM of PTSO), and then stimulated with 1 ng/ml IL-1β. After twenty four hours (24 hr), the supernatants were collected and centrifuged at 1,000 g for 10 min, and stored at −80° C. for the determination of IL-8 levels by ELISA (GE Healthcare). The effects of the different concentrations of PTSO on cell viability were assessed by using the methylthiazol terazolium (MTT) assay (Promega), following the same protocol of incubation of the test compound similar to that described above.

Jurkat cells = test: Cell viability (MTT assay), Jurkat; type: cell-based, human; details: concentrations up to 25 μM

With CCCSS(=O)(=O)CCC [PTSO, 1-propylsulfonylsulfanylpropane] the “production of IL-1β” value [1] was “reduce the production of IL-1β in a dose-dependent manner”, the “production of IL-6” value ([2]; THP-1, 24 h pre-incubation with 0.1 to 25 μM PTSO, then 1 μg/ml LPS and 1 μM PMA, 24 h, FIG. 4) was “can modulate the production of IL-6” and the “production of IL-6 at 0.1 µM” value ([2]; THP-1 cells, at 0.1 µM) was “can increase the production of IL-6”. The “production of IL-6 at more than 1 mM” value ([2]; THP-1 cells, starting from more than 1 mM dose) was “a clear immunosuppressive effect is observed”, the “production of IL-8 cytokine” value [3] was “demonstrated immunomodulatory activity on the production of IL-8 cytokine” and the “production of interferon gamma (IFN-γ)” value [4] was “modulating immune function on the production of interferon gamma (IFN-γ)”. The cell viability (THP-1 cells) was “did not significantly affect the viability”, the cell viability (CACO-2 cells) was “did not significantly affect the viability” and the cell viability (Jurkat cells) was “did not significantly affect the viability”.

— patent US20150238579A1, “METHODS FOR ASSEMBLING A PRODUCT FOR MODULATING AN IMMUNOMODULATORY RESPONSE IN HUMANS” (INVESTFOOD, LLC, priority 2014, published 2015)
